The test system of data set [1] is LC3A/B-II. The data set is described as follows: Western blot for LC3A/B-II (autophagy). The class given is cell-based, human. As to conditions: T47D cells, 30 μM, 48 hours. Here is the method:
Cells were lysed in cold radioimmunoprecipitation assay buffer (50 mM Tris HCl, 150 mM NaCl, 0.1% sodium dodecyl sulfate (SDS), 0.5% sodium deoxycholate, 1% Triton X-100, pH = 8.0) supplemented with protease inhibitor cocktail (Sigma), phosphatase inhibitor cocktail 2 (Sigma) and 1 mM dithiothreitol (DTT) (Sigma). The lysate was sonicated for 30 seconds using a 450 Sonifier (Branson Ultrasonics, Danbury, CT, USA) and was centrifuged at 14,000 RPM for five minutes at 4°C. The protein concentration was determined using the BCA protein assay kit (Peirce, Rockford, IL, USA) and the samples were boiled for five minutes with 4× SDS Laemmli buffer. Equal amounts of protein were resolved on SDS polyacrylamide gels and transferred to an Immobilon-FL PVDF membrane (EMD Millipore). Blots were blocked in Odyssey Blocking Buffer (LI-COR, Lincoln, NE, USA) for one hour at room temperature, stained with primary antibodies overnight at 4°C, washed, and stained with IR800CW or IR680 anti-mouse or rabbit secondary antibodies (LI-COR) for one hour at room temperature. Blots were imaged with the Odyssey Infrared Imaging System (LI-COR).
On the technique in general: Immunoblotting shows a protein as a band on a membrane.

A short description of data set [2]: Chemical screen, difference in ATP viability between normal and tumor cells. The class given is cell-based. As to conditions: human, four days, duplicate, read-out: difference in viability between the hTERT-HMEC and PE1007070 cells (selectivity). Here is the method:
The hTERT-HMEC and PE1007070 cells were seeded in white 96-well plates (Costar) in 100 μL of modified M87 media at varying densities to achieve 80% to 90% confluency at the end of the assay. The 10 mM DMSO stock solutions from the 560-compound University of Utah Department of Chemistry library were diluted with modified M87 media utilizing an EP Motion 5075 (Eppendorf North America) liquid handler. In addition, corresponding DMSO vehicle and doxorubicin controls were prepared in modified M87 media. After the cells were cultured for 24 hours, 80 μL of media was aspirated from each well. […] After four days of treatment, viability was determined utilizing the ATPlite 1step assay system (Perkin Elmer) according to the manufacturer's instructions. Luminescence measurements were acquired utilizing a Perkin Elmer 2104 EnVision plate reader. Raw luminescence values were normalized to the DMSO vehicle control wells for each plate and cell type. […]
Reagent/ compound dispensing system Eppendorf EP Motion 5075 (Compound dilution) Detection instrument and software Luminescence was detected with a Perkin Elmer Envision 2104 Assay validation/QC 20 µM Doxorubicin was used as a positive control and used to […]
Additional comments Selectivity of compounds was determined by subtracting the average viability of the PE1007070 from the hTERT-HMEC cells […]

Data set [3] has as its system caspase-3/7, -8 or -9. The data set is described as follows: Caspase-Glo caspase activity assay. The data set is classed as cell-based, human. The conditions noted are these: 30 μM, 24 or 48 hours, normalized to ATP viability. The method, then: Adherent cells were seeded in two identical white 96-well plates (Costar) in 100 μL of their respective media at varying densities to achieve 80% to 90% confluency at the end of the assay. After 24 hours, the media were aspirated and the cells were treated with 30 μM C-6 or a matched 0.03% (v/v) DMSO vehicle control in the corresponding media containing 2% FBS. For suspension cultures, cells were first seeded in 75 μL of media. At the start of treatment, 25 μL of a 4× concentration of C-6 or a matched (v/v) DMSO vehicle control was added to each well such that the final volume in each well was 100 μL and the final concentration of C-6 was 30 μM. For the caspase activity assays, additional wells were treated with 1 μM staurosporine. […] For the Caspase-Glo assay, cell viability was determined for the additional 96-well plate utilizing the ATPlite 1step assay system (Perkin Elmer) according to the manufacturer's instructions. For the AAF-Glo assay, the total protein in each well of the additional plate was measured using the BCA protein assay kit (Peirce, Rockford, IL, USA). Luminescence measurements were acquired utilizing a Perkin Elmer 2104 EnVision plate reader. Raw luminescence values for each assay were normalized to the DMSO vehicle control wells. […]

For `COc1cc(OC)cc(C(C)c2ccc(NC(=O)OC(C)(C)C)cc2)c1` (stereo not drawn) [C-6], in data set [1], the LC3A/B-II levels result is “small increase”. The viability difference, normal minus tumor cells (selectivity) at 4 days, 20 µM in data set [2] was found to be 62%. Further, in data set [3], the caspase activity entry is given as “did not induce significant caspase activity”.

(Values after article PMC4028696, “Development of a screen to identify selective small molecules active against patient-derived metastatic and chemoresistant breast cancer cells” (Breast Cancer Research : BCR, 2013).)
